The first experiment concerns 80S14 (p21-deficient) cells. Put plainly: Cytotoxicity assay using isogenic cell lines: IC50 in 80S14 (p21-deficient) cells, SRB. The format is cell-based, human. Particulars: 80S14 (p21-deficient) cells, 5 days, SRB; class symbols; read-out: IC50 for 80S14. The essentials:
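80S14 (p21-deficient) cells seeded at 12,000 cells/well overnight, then exposed 5 days at 37 °C to serial dilutions (5 pM–50 μM or 170 pg/ml–10 μg/ml). TCA-fixed, sulforhodamine B-stained, absorbance at 560 nm; IC50 taken from cytotoxicity curves versus untreated controls.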
In the case of “tert-Butyl 4-[({3-[3-[3-(thien-2-ylcarbonyl)pyrazolo[1,5-a]pryimidin-7-yl]phenyl}amino)carbonyl]piperidine-1-carboxylate [Example 405]”, the IC50 is 1 to 10 µM.

The experiment is the same for the next values; noted with them: 80S14 p21-deficient cells, 5 days incubation, SRB; read-out: IC50 for 80SI4.
Regarding `O=C(c1cccs1)c1cnn2c(-c3cccc(NC(=O)[C@@H]4CCCN4C(=O)C(F)(F)F)c3)ccnc12` [Example 52], the IC50 lay within 1 to 10 µM. Still for that read-out and setting: as for `N[C@@H](CC1CCCCC1)C(=O)Nc1cccc(-c2ccnc3c(C(=O)c4cccs4)cnn23)c1` [Example 82, 3-cyclohexyl-N-1-[3-[3-(thien-2-ylcarbonyl)pyrazolo[1,5-a]pyrimidin-7-yl]phenyl}-L-alaninamide], the figure is 10 to 50 µM.

Still in this experiment, the particulars now being: Homo sapiens, 80S14, 120 h, read-out: IC50 for 80SI4 (uM).
Take `C=CCCOC(=O)Nc1cccc(-c2ccnc3c(C(=O)c4cccs4)cnn23)c1` [Example 20, 3-butenyl 3-[3-(2-thienylcarbonyl)pyrazolo[1,5-a]pyrimidin-7-yl]phenylcarbamate]: the IC50 was less than 1 µM. `CC(C)CC(=O)Nc1cccc(-c2ccnc3c(C(=O)c4cccs4)cnn23)c1` [Example 47, 3-methyl-N-{3-[3-(thien-2-ylcarbonyl)pyrazolo[1,5-a]pyrimidin-7-yl]phenyl}butanamide]: the IC50 was less than 1 µM.

The experiment is the same for the next values; noted with them: Homo sapiens, 120 h; 80S14 (p21-deficient) cells, 5 days, SRB; class symbols; read-out: IC50 for 80S14.
In the case of `Cc1cc(C)cc(-c2cnn3c(-c4cccc(-c5nnn(CCN6CCCC6)n5)c4)ccnc23)c1` [Example 498, 3-(3,5-Dimethylphenyl)-7-{3-[2-(2-pyrrolidin-1-ylethyl)-2H-tetrazol-5-yl]phenyl}pyrazolo[1,5-a]pyrimidine], the IC50 was 1 to 10 µM. On the same count and under the same terms, as for `CN(C(=O)O)c1cccc(-c2ccnc3c(C(=O)c4cccs4)cnn23)c1` [Example 239, Methyl [3-[3-(2-thienylcarbonyl)pyrazolo-[1,5-a]pyrimidin-7-yl]phenyl}-carbamic acid], the figure is 1 to 10 µM. Regarding `CC(C)CNc1cccc(-c2ccnc3c(C(=O)c4cccs4)cnn23)c1` [Example 404, {7-[3-(Isobutylamino)phenyl]pyrazolo[1,5-a]pyrimidin-3-yl}(thien-2-yl)methanone], the IC50 lay in the range of 1 to 10 µM.

Take `CNc1cccc(-c2ccnc3c(C(=O)c4cccs4)cnn23)c1` [Example 266, [7-[3-(Methylamino)phenyl]pyrazolo[1,5-a]pyrimidin-3-yl]-2-thienyl-methanone]: the IC50 lay in the range of 1 to 10 µM.

With `Cc1nn2c(-c3cccc(NC(=O)OC(C)C)c3)ccnc2c1C(=O)c1cccs1` [Example 308, Isopropyl 3-[2-methyl-3-(2-thienylcarbonyl)pyrazolo[1,5-a]pyrimidin-7-yl]phenylcarbamate], the IC50 is 10 to 50 µM. Consider `CCN(C(=O)C1CC1)c1cccc(-c2ccnc3c(C#N)cnn23)c1` [Example 256, N-[3-(3-Cyanopyrazolo[1,5-a]pyrimidin-7-yl)phenyl]-N-ethyl-cyclopropanecarboxamide], for which the IC50 is 10 to 50 µM. On the same count and under the same terms, as for `COc1ccc(-c2ccnc3c(C(=O)c4cccs4)cnn23)cc1NC(=O)CC(C)C` [Example 317, N-{2-Methoxy-5-[3-(2-thienylcarbonyl)pyrazolo[1,5-a]pyrimidin-7-yl]phenyl}-3-methylbutanamide], the figure is 1 to 10 µM; as for `COc1ccc(-c2ccnc3c(C(=O)c4cccs4)cnn23)cc1NC(=O)OC(C)C` [Example 316, Isopropyl 2-methoxy-5-[3-(2-thienylcarbonyl)pyrazolo[1,5-a]pyrimidin-7-yl]phenylcarbamate], 1 to 10 µM. As for `CCN(C(=O)C1CC1)c1cccc(-c2ccnc3ccnn23)c1` [Example 254, N-Ethyl-N-(3-pyrazolo[1,5-a]pyrimidin-7-ylphenyl)-cyclopropanecarboxamide], the IC50 is 10 to 50 µM.

Staying with this experiment, now noted: Homo sapiens, 120 h; 80S14 (p21-deficient) cells, 5 days, SRB; numeric value; read-out: IC50 for 80S14.
With `CCCCNC(=N)OC(=N)N(CCCC)c1cccc(-c2ccnc3c(C(=O)c4cccs4)cnn23)c1` [Example 292, N,N′-Dibutyl-N-{3-[3-(2-thienylcarbonyl)pyrazolo[1,5-a]pyrimidin-7-yl]phenyl}dicarbonimidic diamide], the IC50 was 4.5 µM.

Still in this experiment, the particulars now being: Homo sapiens, 120 h; 80S14 p21-deficient cells, 5 days incubation, SRB; read-out: IC50 for 80SI4.
As to `CCCC(OC(=O)Nc1cccc(-c2ccnc3c(C(=O)c4cccs4)cnn23)c1)C(C)C` (centres unmarked) [Example 192, 1-isopropylbutyl 3-[3-(thien-2-ylcarbonyl)pyrazolo[1,5-a]pyrimidin-7-yl]phenylcarbamate], the 50% inhibitory concentration (IC50) is 1 to 10 µM. With `CC(C)NC(=O)Nc1cccc(-c2ccnc3c(C(=O)c4cccs4)cnn23)c1` [Example 6, N-isopropyl-N′-{3-[3-(thien-2-ylcarbonyl)pyrazolo[1,5-a]pyrimidin-7-yl]phenyl}urea], the IC50 is less than 1 µM. `CCCCS(=O)(=O)Nc1cccc(-c2ccnc3c(C(=O)c4cccs4)cnn23)c1` [Example 29, N-{3-[3-(thien-2-ylcarbonyl)pyrazolo[1,5-a]pyrimidin-7-yl]phenyl}butane-1-sulfonamide]: the half-maximal inhibitory concentration (IC50) lay within 1 to 10 µM.

For the compound `CCCCOC(=O)Nc1cccc(-c2c(C)cnc3c(C(=O)c4cccs4)cnn23)c1` [Example 209, butyl 3-[6-methyl-3-(thien-2-ylcarbonyl)pyrazolo[1,5-a]pyrimidin-7-yl]phenylcarbamate], the IC50 was in the range of 10 to 50 µM. Same read-out and setting: as for `O=C(c1cccs1)c1cnn2c(-c3cccc(NS(=O)(=O)c4ccccc4)c3)ccnc12` [Example 31, N-{3-[3-(thien-2-ylcarbonyl)pyrazolo[1,5-a]pyrimidin-7-yl]phenyl}benzenesulfonamide], the figure is 1 to 10 µM; as for `CC(C)(C)COC(=O)NCC(=O)Nc1cccc(-c2ccnc3c(C(=O)c4cccs4)cnn23)c1` [Example 121, neopentyl 2-oxo-2-({3-[3-(thien-2-ylcarbonyl)pyrazolo[1,5-a]pyrimidin-7-yl]phenyl}amino)ethylcarbamate], 1 to 10 µM. Consider `CCCCCCC(=O)Nc1cccc(-c2ccnc3c(C(=O)c4cccs4)cnn23)c1` [Example 151, N-{3-[3-(thien-2-ylcarbonyl)pyrazolo[1,5-a]pyrimidin-7-yl]phenyl}heptanamide], for which the IC50 lay in the range of 1 to 10 µM. On the same count and under the same terms, as for `Cc1cnc2c(C(=O)c3cccs3)cnn2c1-c1cccc(NC(=O)c2ccccc2)c1` [Example 216, N-{3-[6-methyl-3-(thien-2-ylcarbonyl)pyrazolo[1,5-a]pyrimidin-7-yl]phenyl}benzamide], the figure is 10 to 50 µM; as for `CC(CCl)(CCl)C(=O)Nc1cccc(-c2ccnc3c(C(=O)c4cccs4)cnn23)c1` [Example 141, 3-chloro-2-(chloromethyl)-2-methyl-N-{3-[3-(thien-2-ylcarbonyl)pyrazolo[1,5-a]pyrimidin7-yl]phenyl}propanamide], less than 1 µM; as for `O=C(c1cccs1)c1cnn2c(-c3cccc(NC(=O)C(Cl)(Cl)Cl)c3)ccnc12` [Example 49, 2,2,2-trichloro-N-{3-[3-(thien-2-ylcarbonyl)pyrazolo[1,5-a]pyrimidin-7-yl]phenyl}acetamide], 1 to 10 µM. Still for that read-out and setting: as for `CC(C)CC(=O)NCC(=O)Nc1cccc(-c2ccnc3c(C(=O)c4cccs4)cnn23)c1` [Example 133, 3-methyl-N-[2-oxo-2-({3-[3-(thien-2-ylcarbonyl)pyrazolo[1,5-a]pyrimidin-7-yl]phenyl}amino)ethyl]butanamide], the figure is 1 to 10 µM; as for `COc1ccc(C(=O)Nc2cccc(-c3ccnc4c(C(=O)c5cccs5)cnn34)c2)cc1OC` [Example 99, 3,4-dimethoxy-N-{3-[3-(thien-2-ylcarbonyl)pyrazolo[1,5-a]pyrimidin-7-yl]phenyl}benzamide], 1 to 10 µM; as for `O=C(Nc1cccc(-c2ccnc3c(C(=O)c4cccs4)cnn23)c1)c1cnc2ccccc2c1` [Example 70, N-{3-[3-(thien-2-ylcarbonyl)pyrazolo[1,5-a]pyrimidin-7-yl]phenyl}quinoline-3-carboxamide], 1 to 10 µM. On to `O=C(COc1ccccc1)Nc1cccc(-c2ccnc3c(C(=O)c4cccs4)cnn23)c1` [Example 111, 2-phenoxy-N-{3-[3-(thien-2-ylcarbonyl)pyrazolo[1,5-a]pyrimidin-7-yl]phenyl}acetamide], for which the IC50 is 1 to 10 µM. Regarding `O=C(Nc1cccc(-c2ccnc3c(C(=O)c4cccs4)cnn23)c1)OCc1ccccc1` [Example 24, benzyl 3-[3-(thien-2-ylcarbonyl)pyrazolo[1,5-a]pyrimidin-7-yl]phenylcarbamate], the IC50 is less than 1 µM. The same measure, in the same setting: as for `O=C(c1cccs1)c1cnn2c(-c3cccc(NS(=O)(=O)c4ccc(F)cc4)c3)ccnc12` [Example 34, 4-fluoro-N-{3-[3-(thien-2-ylcarbonyl)pyrazolo[1,5-a]pyrimidin-7-yl]phenyl}benzenesulfonamide], the figure is less than 1 µM. Same read-out and setting: as for `COc1ccc(C(=O)Nc2cccc(-c3ccnc4c(C(=O)c5cccs5)cnn34)c2)cc1` [Example 88, 4-methoxy-N-{3-[3-(thien-2-ylcarbonyl)pyrazolo[1,5-a]pyrimidin-7-yl]phenyl]benzamide], the figure is less than 1 µM. Still for that read-out and setting: as for `Cc1cnc2c(C(=O)c3cccs3)cnn2c1-c1cccc(NC(=O)C2CCCC2)c1` [Example 218, N-{3-[6-methyl-3-(thien-2-ylcarbonyl)pyrazolo[1,5-a]pyrimidin-7-yl]phenyl}cyclopentanecarboxamide], the figure is 10 to 50 µM. For the compound `CC(CC(=O)Nc1cccc(-c2ccnc3c(C(=O)c4cccs4)cnn23)c1)C(F)(F)F` (centres unmarked) [Example 59, 4,4,4-trifluoro-3-methyl-N-{3-[3-(thien-2-ylcarbonyl)pyrazolo[1,5-a]pyrimidin-7-yl]phenyl}butanamide], the IC50 was less than 1 µM.

For `CCNC(=O)Nc1cccc(-c2ccnc3c(C(=O)c4cccs4)cnn23)c1` [Example 5, N-ethyl-N′-{3-[3-(thien-2-ylcarbonyl)pyrazolo[1,5-a]pyrimidin-7-yl]phenyl}urea], the IC50 is less than 1 µM.

Broadly, the IC50 is the point on the concentration scale where inhibition reaches its midpoint.

The values are drawn from US20060063784A1, “Method of using substituted pyrazolo [1,5-a] pyrimidines” (priority 2004, published 2006).
